molecular target: T1, human chemokine receptor 2 isoform B (Homo sapiens, UniProt P41597); test: Calcium mobilization assay (FLIPR, antagonist activity against MCP-1); type: cell-based; conditions: Ca mobilisation assay, CHOK1-CCR2B-A5 cells, inhibition of calcium increase induced by 20 nM MCP-1
T1 construct: host or cells: CHOK1-CCR2B-A5 cells (CHO-K1)
T1 sequence (P41597 1-360 isoform P41597-2): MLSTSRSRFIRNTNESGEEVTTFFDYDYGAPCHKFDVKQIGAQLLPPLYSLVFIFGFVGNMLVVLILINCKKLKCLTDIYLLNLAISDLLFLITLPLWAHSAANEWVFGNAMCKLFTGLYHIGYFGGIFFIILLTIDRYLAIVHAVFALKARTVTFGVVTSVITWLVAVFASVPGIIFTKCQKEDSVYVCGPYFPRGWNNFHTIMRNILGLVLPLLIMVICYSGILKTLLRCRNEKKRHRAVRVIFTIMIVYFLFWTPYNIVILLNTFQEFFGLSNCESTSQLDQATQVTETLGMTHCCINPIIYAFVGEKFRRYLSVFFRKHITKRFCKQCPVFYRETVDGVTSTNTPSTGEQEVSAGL
Summary of the method: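 CHOK1 cells stably overexpressing human CCR2B, loaded with 4 μM Fluo-4 for 2 h at 30° C, compounds added and agonist signal read by FLIPR for 80 s. After 20-30 min at 30° C, 20 nM MCP-1 was added and fluorescence read again. IC50 is 50% inhibition of specific calcium increase (max minus basal).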

Row | Molecule | IC50
1 | COC(=O)[C@@H](CCC(=O)N1CCC2(CC2)[C@H](O)C1)N1CCN(C(=O)Nc2ccc(C(F)(F)F)c(Cl)c2)[C@@H](C)C1=O [Example 145, (R)-2-[(S)-4-(3-Chloro-4-trifluoromethyl-phenylcarbamoyl)-3-methyl-2-oxo-piperazin-1-yl]-5-((S)-4-hydroxy-6-aza-spiro[2.5]oct-6-yl)-5-oxo-pentanoic acid methyl ester] | 6310 nM
2 | C[C@H]1C(=O)N([C@@H](CO)CCC(=O)N2CCC3(CC3)[C@H](O)C2)CCN1C(=O)Nc1ccc(C(F)(F)F)c(Cl)c1 [Example 146, (S)-4-[(R)-4-((S)-4-Hydroxy-6-aza-spiro[2.5]oct-6-yl)-1-hydroxymethyl-4-oxo-butyl]-2-methyl-3-oxo-piperazine-1-carboxylic acid (3-chloro-4-trifluoromethyl-phenyl)-amide] | 157 nM
3 | C[C@H]1C(=O)N(CCCC(=O)N2CCC3(CC3)[C@H](O)C2)[C@H](C(N)=O)CN1C(=O)Nc1ccc(C(F)(F)F)c(Cl)c1 [Example 147, (3S,6S)—N1-(3-chloro-4-(trifluoromethyl)phenyl)-4-(4-((S)-4-hydroxy-6-azaspiro[2.5]octan-6-yl)-4-oxobutyl)-6-methyl-5-oxopiperazine-1,3-dicarboxamide] | 3.5 nM
4 | C[C@H]1C(=O)N(CCCC(=O)N2CCC3(CC3)[C@H](O)C2)[C@@H](C(N)=O)CN1C(=O)Nc1ccc(C(F)(F)F)c(Cl)c1 [Example 148, (3R,6S)—N1-(3-chloro-4-(trifluoromethyl)phenyl)-4-(4-((S)-4-hydroxy-6-azaspiro[2.5]octan-6-yl)-4-oxobutyl)-6-methyl-5-oxopiperazine-1,3-dicarboxamide] | 30.5 nM
5 | C[C@H]1C(=O)N(CCCC(=O)N2CCC3(CC3)[C@H](O)C2)[C@H](C(N)=O)CN1C(=O)Nc1ccc(C(F)(F)F)c(C(F)(F)F)c1 [Example 149, (3S,6S)-4-[4-((S)-4-Hydroxy-6-aza-spiro[2.5]oct-6-yl)-4-oxo-butyl]-6-methyl-5-oxo-piperazine-1,3-dicarboxylic acid 3-amide 1-[(3,4-bis-trifluoromethyl-phenyl)-amide]] | 2.2 nM
6 | C[C@@H]1C(=O)N(CCCC(=O)N2CCC3(CC3)[C@H](O)C2)[C@@H](C(N)=O)CN1C(=O)Nc1ccc(C(F)(F)F)c(Cl)c1 [Example 150, (3R,6R)-4-[4-((S)-4-Hydroxy-6-aza-spiro[2.5]oct-6-yl)-4-oxo-butyl]-6-methyl-5-oxo-piperazine-1,3-dicarboxylic acid 3-amide 1-[(3-chloro-4-trifluoromethyl-phenyl)-amide]] | 18 nM
7 | C[C@@H]1C(=O)N(CCCC(=O)N2CCC3(CC3)[C@H](O)C2)[C@@H](C(N)=O)CN1C(=O)Nc1ccc(Cl)c(Cl)c1 [Example 151, (3R,6R)-4-[4-((S)-4-Hydroxy-6-aza-spiro[2.5]oct-6-yl)-4-oxo-butyl]-6-methyl-5-oxo-piperazine-1,3-dicarboxylic acid 3-amide 1-[(3,4-dichloro-phenyl)-amide]] | 62.1 nM
8 | (S)-4-[4-((S)-4-Hydroxy-6-aza-spiro[2.5]oct-6-yl)-4-oxo-butyl]-2-methyl-3-oxo-piperazine-1-carboxylic acid (3-chloro-phenyl)-amide [Example 39] | 965 nM
9 | (rac)-2-{4-[(E)-3-(3,4-Dichloro-phenyl)-acryloyl]-7-oxo-[1,4]diazepan-1-yl}-4-hydroxy-N,N-dimethyl-butyramide [Example 4] | 370 nM

— patent publication US8445674B2, “Heterocyclyl compounds” (Hoffmann-La Roche Inc, priority 2009, dated 2013)
